Data taken from article PMC6897945, “CytA, a reductase in the cytorhodin biosynthesis pathway, inactivates anthracycline drugs in Streptomyces” (Communications Biology, 2019).
Converted amounts (≈) assume the structure as drawn. Where two headings read alike, the source gives them in different places.

Assays:
[1] = Cytotoxic activity, MTT method; type: cell-based; conditions: human
Text: (§1) All data were obtained in triplicate and are presented as means.

[2] = system: A549 human lung cancer cell line; assay: Cytotoxic activity, MTT method; type: cell-based; conditions: A549, read-out: Cytotoxic activities IC50, A549
Text: as §1

[3] = system: MCF-7 human breast adenocarcinoma cell line; assay: Cytotoxic activity, MTT method; type: cell-based; conditions: MCF7, read-out: Cytotoxic activities IC50, MCF-7
Text: as §1

[4] = system: HepG2 human hepatocellular carcinoma cell line; assay: Cytotoxic activity, MTT method; type: cell-based; conditions: HepG2, read-out: Cytotoxic activities IC50, HepG2
Text: as §1

[5] = system: MDA-MB-231 human triple negative breast adenocarcinoma cell line; assay: Cytotoxic activity, MTT method; type: cell-based; conditions: MDA-MB-231, read-out: Cytotoxic activities IC50, MDA-MB-231
Text: as §1

[6] = system: RKO human colorectal carcinoma cell line; assay: Cytotoxic activity, MTT method; type: cell-based; conditions: read-out: Cytotoxic activities IC50, RKO
Text: as §1

[7] = system: MDA-MB-468 human triple negative breast adenocarcinoma cell line; assay: Cytotoxic activity, MTT method; type: cell-based; conditions: MDA-MB-468, read-out: Cytotoxic activities IC50, MDA-MB-468
Text: as §1

[8] = system: HeLa human cervical carcinoma cell line; assay: Cytotoxic activity, MTT method; type: cell-based; conditions: read-out: Cytotoxic activities IC50, HeLa
Text: as §1

[9] = system: CytA; assay: Enzyme kinetics of CytA (formation of deglycosylation products, anaerobic); type: biochemical, Streptomyces sp. SCSIO 1666; conditions: substrate of CytA; 0.5 μM CytA, 20 μM NADH, anaerobic
Procedure: Enzymatic reactions were carried out under anaerobic conditions in an anaerobic workstation (Don Whitley Scientific A45) containing a gas phase of N2/H2/CO2 (80:10: 10%, by vol.). ^1H, ^13C, and 2D (COSY, HMQC, HMBC and NOESY) NMR spectra were recorded at 25 °C with an Avance 700 MHz spectrometer instruments (Bruker). High-resolution mass spectra were obtained with a Maxis quadrupole-time-of-flight mass spectrometer (Bruker).
To validate the in vitro biochemical activities of CytA, we overexpressed and purified this enzyme as a soluble N-terminally His6-tagged protein from E. coli (Fig. 2a). Tris-Cl buffer was made O2 free by boiling, followed by cooling under N2 flow; NADH stock solution (dissolved in Tris-Cl), substrate stock solution (dissolved in DMSO), and enzyme solution (dissolved in Tris-Cl supplemented with 10% glycerin) were subjected to O2 eliminating process in the anaerobic workstations for at least two cycles (40 min for one cycle). CytA enzymatic activity was tested in 50 μL volume containing 50 mM Tris-Cl (pH 8.0), 25 μM substrate, 0.5 μM CytA, and 20 μM NADH, at 37 °C for 30 min. The reaction was quenched with the addition to 2 volumes MeOH. After centrifugation to remove protein, supernatants were analyzed with Agilent HPLC equipment using a Phenomenex Prodigy ODS column S5 (150 × 4.60 mm, 5 μ) and UV detection at 254 and 500 nm. Samples were eluted with a gradient elution of phase A containing 0.1% TFA in ddH2O and phase B containing 100% acetonitrile, at a flow rate of 1 mL/min.
Kinetic analyses of CytA with putative substrates 6–10, daunorubicin, doxorubicin, idarubicin, epirubicin and pirarubicin, involved a reaction volume of 20 μL consisting of 50 mM Tris-Cl (pH 8.0), 0.5 μM CytA, 20 μM NADH, […]
All assays were performed in triplicate and Km and Vmax values were calculated on the basis of curve fitting to the Michaelis-Menten equation: v = Vmax *[S]/(Km + [S]) (Supplementary Fig. 7).
For kinetics of CytA, Origin 9.0 (OriginLab Co.) was used to analyze on the basis of curve fitting to the Michaelis-Menten equation. Experiments were performed in triplicate independently. For antibacterial activity, experiments were performed in triplicate using 96-well plates.

[10] = system: B. thuringiensis BT01; assay: Antibacterial activity, broth dilution MIC; type: cell-based; conditions: Bacillus thuringiensis
Procedure: (§2) The antibacterial activities of compounds 1–13 were assessed using twofold serial dilutions of antibacterial agents in MH broth, according to previously reported standard methods provided by Clinical and Laboratory Standards Institute (CLSI)[30]. These compounds were tested for their antibacterial activities against Bacillus subtilis BS01, Staphyloccocus aureus ATCC 29213, Staphyloccocus aureus 745524, Bacillus thuringiensis BT01, and Enterococcus faecalis ATCC 29212 using a broth dilution method.

[11] = system: B. subtilis BS01; assay: Antibacterial activity, broth dilution MIC; type: cell-based; conditions: Bacillus subtilis; B. subtilis BS01; triplicate; read-out: MIC values, BS
Procedure: as §2

[12] = system: Staphylococcus aureus 745524; assay: Antibacterial activity, broth dilution MIC; type: cell-based; conditions: Staphylococcus aureus 745524; triplicate; read-out: MIC values, SA2
Procedure: as §2

[13] = system: Staphylococcus aureus ATCC 29213; assay: Antibacterial activity, broth dilution MIC; type: cell-based; conditions: ATCC29213; Staphylococcus aureus ATCC 29213; triplicate; read-out: MIC values, SA1
Procedure: as §2

[14] = system: E. faecalis ATCC 29212; assay: Antibacterial activity, broth dilution MIC; type: cell-based; conditions: Enterococcus faecalis, ATCC29212; E. faecalis ATCC 29212; triplicate; read-out: MIC values, EF
Procedure: as §2

[15] = system: MDA-MB-468 cells; conditions: cited from earlier work
[16] = system: five gram-positive bacteria; assay: Antibacterial activities, set of five gram-positive bacteria; type: cell-based; conditions: set of five gram-positive bacteria (Table 2)
Procedure: as §2

[17] = system: Streptomyces sp. SCSIO 1666 ΔcytA mutant strain; assay: Growth inhibition zone assay; type: cell-based; conditions: ∆cytA mutant strain, Fig. 3
Text: (§3) We also noted that the ∆cytA mutant strain accumulated small amounts (80~100-fold lower than WT producer) of the immediate biosynthetic precursors of cosmomycins A (3) and B (4). The in vitro antimicrobial activities of compounds 1–13 against a panel of gram-positive bacteria (Table 2) provided some insight into the possible physiological significance of CytA-catalyzed reductions. Furthermore, we had observed that the ΔcytA mutant strain is clearly impaired relative to the WT strain upon addition of 6 or 7 as potential substrates. To evaluate this effect, we probed the sensitivity of Streptomyces sp. SCSIO 1666 to 6 and 7 in an inhibition zone assay (Fig. 3). A clear inhibition zone (16 mm) using the ΔcytA mutant plate was observed when supplemented with 1 μg of 6 or 7. […] That CytA production endows cosmomycin resistance provides strong evidence that the cytA gene directly confers Streptomyces. sp. SCSIO 1666 with the ability to protect itself from the effects by self-resistance to cosmomycins C and D.
(§4) Fig. 3 Sensitivity of Streptomyces sp. SCSIO 1666 toward cosmomycin C (6) and cosmomycin D (7) (1 μg) as determined by growth inhibition zone assays. […] TEXT PRINTED IN THE PICTURE: 6: ΔcytA mutant strain: 16 mm DOUBTS OF THE COPYIST ABOUT THIS PICTURE: 6, ΔcytA mutant strain: the small yellow print reads 16 mm, but it could be 15 or 18 mm / 6: the yellow double arrow marked 16 mm spans the zone around disc 6. The picture prints no measure name, so it may be the inhibition zone diameter or only a scale mark

[18] = system: Streptomyces sp. SCSIO 1666 WT; assay: Growth inhibition zone assay; type: cell-based; conditions: WT strain, Fig. 3
Text: as §3, §4

[19] = Huvec-12 normal cell line, read-out: Cytotoxic activities IC50, Huvec-12
[20] = L02 normal cell line, read-out: Cytotoxic activities IC50, L02
[21] = B. thuringiensis BT01, triplicate, read-out: MIC values, BT

| SMILES | IC50 [1, 19] | IC50 [1, 20] | IC50 [2] | IC50 [3] | IC50 [4] | IC50 [5] | IC50 [6] | IC50 [7] | IC50 [8] | Km [9] | kcat [9] | MIC [10, 21] | MIC [11] | MIC [12] | MIC [13] | MIC [14] | MIC [16] | also measured |
| --- | --- | --- | --- | --- | --- | --- | --- | --- | --- | --- | --- | --- | --- | --- | --- | --- | --- | --- |
| CC[C@]1(O)Cc2c(O)c3c(c(O)c2[C@@H](O[C@H]2C[C@H](N(C)C)[C@H](O)[C@H](C)O2)C1)C(=O)c1c(O)cccc1C3=O [Compound 8, 10-decarbomethoxy-ε-rhodomycin] | 6.92 µM | 19.8 µM | 6.24 µM | 21.1 µM | 1.99 µM | 7.65 µM | 3.28 µM | 16.8 µM | 1.31 µM | 12.7 µM | 0.00283 s⁻¹ | 8 mg/L (≈ 15.2 µM) | 8 mg/L (≈ 15.2 µM) | 8 mg/L (≈ 15.2 µM) | 4 mg/L (≈ 7.58 µM) | 4 mg/L (≈ 7.58 µM) |  |  |
| CC[C@@]1(O)CCc2c(O)c3c(c(O)c2[C@H]1O[C@H]1C[C@H](N(C)C)[C@H](O[C@H]2C[C@H](O)[C@H](O[C@H]4CC[C@H](O)[C@H](C)O4)[C@H](C)O2)[C@H](C)O1)C(=O)c1cccc(O)c1C3=O [Compound 4, cosmomycin B] | 0.41 µM | 0.32 µM | 0.021 µM | 0.65 µM | 0.038 µM | 0.85 µM | 0.089 µM | 0.71 µM | 0.017 µM |  |  | 0.25 mg/L (≈ 0.324 µM) | 0.25 mg/L (≈ 0.324 µM) | 0.125 mg/L (≈ 0.162 µM) | 0.25 mg/L (≈ 0.324 µM) | 0.03 mg/L (≈ 0.0389 µM) |  | cytotoxic activity against MDA-MB-468 cells [15]: devoid of activity |
| CC[C@@]1(O)C[C@H](O)c2c(O)c3c(c(O)c2[C@H]1C(=O)OC)C(=O)c1cccc(O)c1C3=O [Compound 10, ε-rhodomycinone] | 15.3 µM | 11.8 µM | 33.2 µM | 37.3 µM | 17.2 µM | > 50 µM | 18.5 µM | 7.43 µM | 20.2 µM | 31.2 µM | 0.00233 s⁻¹ |  | > 32 mg/L | > 32 mg/L | > 32 mg/L | > 32 mg/L | > 32 mg/L | activity in growth inhibition zone assay [17]: inactive; activity in growth inhibition zone assay [18]: inactive; MIC ([10]; BT01, read-out: MIC values, BT): > 32 mg/L |
| CC[C@@]1(O)CCc2c(O)c3c(c(O)c2[C@H]1C(=O)OC)C(=O)c1cccc(O)c1C3=O [Compound 11] |  |  |  |  |  |  |  |  |  |  |  | > 32 mg/L | > 32 mg/L | > 32 mg/L | > 32 mg/L | > 32 mg/L | > 32 mg/L |  |
